Each structure is given as a SMILES string.

For the assay, the target named is T1, human CRTH2 (Homo sapiens, UniProt Q9Y5Y4).
T1 construct: expressed in transfected cells
T1 sequence (Q9Y5Y4 1-395): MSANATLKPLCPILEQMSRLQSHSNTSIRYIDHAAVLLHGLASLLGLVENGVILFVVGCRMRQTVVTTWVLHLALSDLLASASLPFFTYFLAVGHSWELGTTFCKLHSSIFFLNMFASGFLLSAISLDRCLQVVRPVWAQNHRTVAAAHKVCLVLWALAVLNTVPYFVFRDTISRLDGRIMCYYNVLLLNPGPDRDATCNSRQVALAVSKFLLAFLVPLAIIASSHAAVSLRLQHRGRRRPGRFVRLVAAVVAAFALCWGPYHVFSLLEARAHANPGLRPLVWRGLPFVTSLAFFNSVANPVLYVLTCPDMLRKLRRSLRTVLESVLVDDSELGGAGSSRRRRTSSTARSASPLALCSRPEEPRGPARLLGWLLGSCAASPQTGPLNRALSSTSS
Briefly: Human CRTH2 Receptor Binding Assay (whole cell, [3H]ramatroban competition). As to conditions: CHO-K1 cells stably expressing human CRTH2 and G-alpha16; 20 nM [3H]ramatroban; 1 hour, room temperature. An excerpt: A whole cell receptor binding assay using [^3H]ramatroban as the competing radioactive ligand was employed to evaluate the compound binding activity to human CRTH2. The radioactive ligand [^3H]ramatroban was synthesized according to Sugimoto et. al. (Eur. J. Pharmacol. 524, 30-37, 2005) to a specific activity of 42 Ci/mmol.
A cell line stably expressing human CRTH2 was established by transfecting CHO-K1 cells with two mammalian expression vectors that harbored human CRTH2 and G-alpha16 cDNAs, respectively, using FuGene® 6 transfection reagent (from Roche). Stable clones expressing CRTH2 were selected by staining each clone with BM16 (BD Pharmingen™ from BD Biosciences, a division of Becton, Dickinson and Company), which is a rat monoclonal antibody to human CRTH2. The cells were maintained as monolayer cultures in Ham's F-12 medium containing 10% fetal bovine serum, 100 units/mL penicillin, 100 μg/mL streptomycin, 2 mM glutamine, 0.5 mg/mL G418 (geneticin) for CRTH2, and 0.2 mg/mL hygromycin-B (for G-alpha 16). For whole cell receptor binding assay, the monolayer cells were rinsed once with PBS (phosphate buffered saline), dissociated using ethylenediaminetetraacetate (Versene™ EDTA from Lonza Inc.), and suspended in PBS containing 10 mM MgCl2 and 0.06% BSA (bovine serum albumin) at 1.5×10^6 cells/mL.
The binding reactions (0.2 mL) were performed in 96-well plates at room temperature in PBS containing 1.5×10^5 cells, 10 mM MgCl2, 0.06% BSA, 20 nM [^3H]ramatroban, and test compound at various concentrations. After 1 hour of binding reactions, the cells were harvested on GF™/B filter microplates (microtiter plates with embedded glass fiber from PerkinElmer, Inc.) and washed 5 times with PBS using a Filtermate™ Harvester (a cell harvester that harvests and washes cells from microplates from PerkinElmer, Inc.). The radioactivities bound to the cells were determined using a microplate scintillation counter (TopCount® NXT, from PerkinElmer, Inc.) after adding 50 μL of Microscint™ 20 scintillation fluid (from PerkinElmer, Inc.) to each well of the filter plates. The radioactivity from non-specific binding was determined by replacing compound with 10 μM of 15(R)-15-methyl PGD2 (from Cayman Chemical Company) in the reaction mixtures. The radioactivity bound to the cells in the absence of compound (total binding) was determined by replacing compound with 0.25% of DMSO (dimethyl sulfoxide) in the reaction mixture. Specific binding data were obtained by subtracting the radioactivity of non-specific binding from each binding data.
The IC50 value is defined as the concentration of the tested compound that is required for 50% inhibition of total specific binding. In order to calculate the IC50 value, the percent inhibition data were determined for 7 concentrations for each compound. The percent inhibition for a compound at each concentration was calculated according to the following formula, [1−(specific binding in the presence of compound)/(total specific binding)]×100. The IC50 value was then obtained by fitting the percent inhibition data to a sigmoidal dose-response (4 parameter logistic) model in the XLfit® software Excel add-in program [from ID Business Solutions Ltd., model 205, where F(x)=(A+(B−A)/(1+((C/x)^D)))].
The IC50 is the concentration needed to halve the response being measured. In turn, `CN([C@@H]1CCCc2c1cnn2CC(=O)O)S(=O)(=O)c1cc(C(F)(F)F)cc(S(=O)(=O)C(C)(C)C)c1` [Example 10-4a, ((R)-4-{Methyl-[3-(2-methyl-propane-2-sulfonyl)-5-trifluoromethyl-benzenesulfonyl]-amino}-4,5,6,7-tetrahydro-indazol-1-yl)-acetic acid] displayed an IC50 of 4.7 nM.

Turning to `CN([C@@H]1CCCc2c1cnn2CC(=O)O)S(=O)(=O)c1cc(C(C)(F)F)cc(C(F)(F)F)c1` [Example 20-1a, ((R)-4-{[3-(1,1-Difluoro-ethyl)-5-trifluoromethyl-benzenesulfonyl]-methyl-amino}-4,5,6,7-tetrahydro-indazol-1-yl)-acetic acid], the IC50 was found to be 3.5 nM.

`O=C(O)Cn1ncc2c1CCCC2NS(=O)(=O)c1cc(Cl)cc(Cl)c1` (centres unmarked) [Example 1-2a, [4-(3,5-Dichloro-benzenesulfonylamino)-4,5,6,7-tetrahydro-indazol-1-yl]-acetic acid] registered an IC50 of 386 nM.

`C=C(C)c1cc(C(F)(F)F)cc(S(=O)(=O)NC2CCCc3c2cnn3CC(=O)O)c1` (centres unmarked) [Example 25-3a, [4-(3-Isopropenyl-5-trifluoromethyl-benzenesulfonylamino)-4,5,6,7-tetrahydro-indazol-1-yl]-acetic acid]: the IC50 came to 40.4 nM.

Turning to `CN([C@@H]1CCCc2c1cnn2C(C)(C)C(=O)O)S(=O)(=O)c1cc(C(F)(F)F)cc(C(F)(F)F)c1` [Example 21-1a, 2-{(R)-4-[(3,5-Bis-trifluoromethyl-benzenesulfonyl)-methyl-amino]-4,5,6,7-tetrahydro-indazol-1-yl}-2-methyl-propionic acid], the IC50 was 278 nM.

`CC(C)Oc1ncc(S(=O)(=O)N(C)[C@@H]2CCCc3c2cnn3CC(=O)O)cc1Br` [Example 4-3a, {(R)-4-[(5-Bromo-6-isopropoxy-pyridine-3-sulfonyl)-methyl-amino]-4,5,6,7-tetrahydro-indazol-1-yl}-acetic acid] displayed an IC50 of 37.2 nM.

`CN([C@@H]1CCCc2c1cnn2CCC(=O)O)S(=O)(=O)c1cc(C(F)(F)F)cc(S(=O)(=O)C2CCCC2)c1` [Example 10-6a, 3-{(R)-4-[(3-Cyclopentanesulfonyl-5-trifluoromethyl-benzenesulfonyl)-methyl-amino]-4,5,6,7-tetrahydro-indazol-1-yl}-propionic acid]: the IC50 worked out at 3.3 nM.

As for `CC(C)c1cc(C(F)(F)F)cc(S(=O)(=O)N[C@@H]2CCCc3c2cnn3CC(=O)O)c1` [Example 12-1a, (R)-[4-(3-Isopropyl-5-trifluoromethyl-benzenesulfonylamino)-4,5,6,7-tetrahydro-indazol-1-yl]-acetic acid], the IC50 is 22 nM.

The compound `CN([C@@H]1CCCc2c1cnn2CC(=O)O)S(=O)(=O)c1cc(C2CCCC2)cc(C(F)(F)F)c1` [Example 18-1a, {(R)-4-[(3-Cyclopentyl-5-trifluoromethyl-benzenesulfonyl)-methyl-amino]-4,5,6,7-tetrahydro-indazol-1-yl}-acetic acid] returned an IC50 of 28.6 nM.

Compound `CS(=O)(=O)c1cccc(S(=O)(=O)NC2CCCc3c2cnn3CC(=O)O)c1` (centres unmarked) [Example 1-14a, [4-(3-Methanesulfonyl-benzenesulfonylamino)-4,5,6,7-tetrahydro-indazol-1-yl]-acetic acid] yielded an IC50 of 43.2 nM.

As for `O=C(O)Cn1ncc2c1CCCC2NS(=O)(=O)c1ccc(Br)c(C(F)(F)F)c1` (centres unmarked) [Example 1-10a, [4-(4-Bromo-3-trifluoromethyl-benzenesulfonylamino)-4,5,6,7-tetrahydro-indazol-1-yl]-acetic acid], the IC50 was determined as 119 nM.

As for `O=C(O)Cn1ncc2c1CCC[C@H]2NS(=O)(=O)c1cc(Br)cc(C(F)(F)F)c1` [Example 1-1a, [(R)-4-(3-Bromo-5-trifluoromethyl-benzenesulfonylamino)-4,5,6,7-tetrahydro-indazol-1-yl]-acetic acid], the IC50 was determined as 13 nM.

`CC(=O)Nc1cccc(S(=O)(=O)NC2CCCc3c2cnn3CC(=O)O)c1` (centres unmarked) [Example 22-1a, [4-(3-Acetylamino-benzenesulfonylamino)-4,5,6,7-tetrahydro-indazol-1-yl]-acetic acid] showed a concentration for half-maximal inhibition (IC50) of 80.1 nM.

The compound `COc1cc(C(F)(F)F)cc(S(=O)(=O)N[C@@H]2CCCc3c2cnn3CC(=O)O)c1` [Example 1-12a, [(R)-4-(3-Methoxy-5-trifluoromethyl-benzenesulfonylamino)-4,5,6,7-tetrahydro-indazol-1-yl]-acetic acid] gave an IC50 of 53.3 nM.

For the compound `CC[S+]([O-])c1cc(C(F)(F)F)cc(S(=O)(=O)N(C)[C@@H]2CCCc3c2cnn3CC(=O)O)c1` (stereo partly drawn) [Example 8-1a, {(R)-4-[(3-Ethanesulfinyl-5-trifluoromethyl-benzenesulfonyl)-methyl-amino]-4,5,6,7-tetrahydro-indazol-1-yl}-acetic acid], the IC50 turned out to be 3.3 nM.

As to `CN([C@@H]1CCCc2c1cnn2CC(=O)O)S(=O)(=O)c1cc(C(F)(F)F)cc(C(F)(F)F)c1` [Example 2-1a, {(R)-4-[(3,5-Bis-trifluoromethyl-benzenesulfonyl)-methyl-amino]-4,5,6,7-tetrahydro-indazol-1-yl}-acetic acid], the IC50 amounted to 12.1 nM.

`CN([C@@H]1CCCc2c1cnn2CC(=O)O)S(=O)(=O)c1cc(C(F)(F)F)cc(S(C)(=O)=O)c1` [Example 6-1a, {(R)-4-[(3-Methanesulfonyl-5-trifluoromethyl-benzenesulfonyl)-methyl-amino]-4,5,6,7-tetrahydro-indazol-1-yl}-acetic acid] returned an IC50 of 2.5 nM.

For the compound `CN([C@@H]1CCCc2c1cnn2CC(=O)O)S(=O)(=O)c1cc(N2CCCC2)cc(C(F)(F)F)c1` [Example 24-1a, {(R)-4-[Methyl-(3-pyrrolidin-1-yl-5-trifluoromethyl-benzenesulfonyl)-amino]-4,5,6,7-tetrahydro-indazol-1-yl}-acetic acid], the IC50 worked out at 38.1 nM.

Consider `O=C(O)Cn1ncc2c1CCCC2NS(=O)(=O)c1ccc(Cl)cc1Cl` (centres unmarked) [Example 1-3a, [4-(2,4-Dichloro-benzenesulfonylamino)-4,5,6,7-tetrahydro-indazol-1-yl]-acetic acid], for which the IC50 was 234 nM.

`CN([C@@H]1CCCc2c1cnn2CC(=O)O)S(=O)(=O)c1cc(C(F)(F)F)cc(S(=O)(=O)C2CCCC2)c1` [Example 10-2a, {(R)-4-[(3-Cyclopentanesulfonyl-5-trifluoromethyl-benzenesulfonyl)-methyl-amino]-4,5,6,7-tetrahydro-indazol-1-yl}-acetic acid] returned an IC50 of 2.9 nM.

On to `CN([C@@H]1CCCc2c1cnn2CC(=O)O)S(=O)(=O)c1cc(C(C)(C)C)cc(C(C)(C)C)c1` [Example 2-7a, {(R)-4-[(3,5-Di-tert-butyl-benzenesulfonyl)-methyl-amino]-4,5,6,7-tetrahydro-indazol-1-yl}-acetic acid], for which the IC50 came to 166 nM.

Regarding `CN([C@@H]1CCCc2c1cnn2CC(=O)O)S(=O)(=O)c1cc(C(F)(F)F)cc([Si](C)(C)C)c1` [Example 17-1a, {(R)-4-[Methyl-(3-trifluoromethyl-5-trimethylsilanyl-benzenesulfonyl)-amino]-4,5,6,7-tetrahydro-indazol-1-yl}-acetic acid], the IC50 is 55.6 nM.

`CN(C)c1cc(C(F)(F)F)cc(S(=O)(=O)N(C)[C@@H]2CCCc3c2cnn3CC(=O)O)c1` [Example 24-3a, {(R)-4-[(3-Dimethylamino-5-trifluoromethyl-benzenesulfonyl)-methyl-amino]-4,5,6,7-tetrahydro-indazol-1-yl}-acetic acid]: the IC50 amounted to 62.2 nM.
